Values of other authors as cited in patent publication US10156556B2, “Method for determining ecological risks of polycyclic aromatic hydrocarbon in water body” (priority 2013, dated 2018).

Conditions: relative to benzoapyrene; Nisbet and Lagoy 1992; cited from earlier work

Structure (SMILES): c1ccc2c(c1)-c1cccc3cccc-2c13 [Flu]
- Toxic equivalency factor: 0.001
